Series [1] addresses T1, Tyrosine-protein kinase receptor TYRO3 (Homo sapiens, UniProt Q06418).
T1 sequence (Q06418 whole entry): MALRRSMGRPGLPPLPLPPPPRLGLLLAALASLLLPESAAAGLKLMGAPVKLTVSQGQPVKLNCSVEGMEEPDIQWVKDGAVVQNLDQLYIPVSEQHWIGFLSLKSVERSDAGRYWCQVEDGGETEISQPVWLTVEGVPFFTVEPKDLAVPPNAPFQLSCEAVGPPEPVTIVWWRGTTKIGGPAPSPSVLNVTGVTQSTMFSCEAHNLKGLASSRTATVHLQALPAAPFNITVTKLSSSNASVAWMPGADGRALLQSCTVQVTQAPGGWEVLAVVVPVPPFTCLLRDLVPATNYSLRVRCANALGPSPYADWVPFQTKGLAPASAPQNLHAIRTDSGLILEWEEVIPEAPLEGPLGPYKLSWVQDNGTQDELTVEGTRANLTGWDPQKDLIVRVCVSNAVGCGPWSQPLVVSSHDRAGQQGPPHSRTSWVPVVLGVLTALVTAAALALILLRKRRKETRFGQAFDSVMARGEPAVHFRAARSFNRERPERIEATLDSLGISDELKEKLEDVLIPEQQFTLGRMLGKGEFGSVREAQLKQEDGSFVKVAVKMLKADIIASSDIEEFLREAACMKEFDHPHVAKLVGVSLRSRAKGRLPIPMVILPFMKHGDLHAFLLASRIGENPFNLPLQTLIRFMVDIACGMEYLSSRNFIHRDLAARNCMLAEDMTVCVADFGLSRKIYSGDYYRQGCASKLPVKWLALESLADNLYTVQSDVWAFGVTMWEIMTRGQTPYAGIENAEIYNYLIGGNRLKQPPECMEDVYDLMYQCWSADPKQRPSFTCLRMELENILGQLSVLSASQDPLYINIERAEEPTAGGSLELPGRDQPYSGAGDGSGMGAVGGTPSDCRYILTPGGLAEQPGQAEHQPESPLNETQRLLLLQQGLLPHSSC
The experiment in a line: Inhibition of human RSE in presence of ATP by radiometric assay.

Series [2] deals with Serine/threonine-protein kinase AKT (Homo sapiens) (UniProt P31751+Q9Y243+P31749). Nature of the series: Inhibition of AKT phosphorylation in human KM12-luc cells incubated for 6 hrs by Western blot analysis. Format: cell-based. The following applies: dose 3-300 nM.
Chain of Serine/threonine-protein kinase AKT (Homo sapiens) (P31749 whole entry, looked up): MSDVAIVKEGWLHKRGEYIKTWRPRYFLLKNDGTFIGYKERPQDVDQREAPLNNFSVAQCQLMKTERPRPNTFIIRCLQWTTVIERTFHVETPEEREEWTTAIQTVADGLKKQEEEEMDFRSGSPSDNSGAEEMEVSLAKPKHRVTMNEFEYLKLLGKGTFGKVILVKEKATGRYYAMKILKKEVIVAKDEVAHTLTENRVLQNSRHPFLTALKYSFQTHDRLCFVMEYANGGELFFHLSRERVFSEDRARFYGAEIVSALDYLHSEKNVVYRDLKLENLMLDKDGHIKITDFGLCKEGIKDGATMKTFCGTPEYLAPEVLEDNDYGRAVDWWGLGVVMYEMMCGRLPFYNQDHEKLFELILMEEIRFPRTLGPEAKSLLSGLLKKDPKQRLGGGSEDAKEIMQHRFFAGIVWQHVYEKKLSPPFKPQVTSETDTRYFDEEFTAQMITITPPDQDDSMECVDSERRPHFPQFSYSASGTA
Chain of Serine/threonine-protein kinase AKT (Homo sapiens) (P31751 whole entry, looked up): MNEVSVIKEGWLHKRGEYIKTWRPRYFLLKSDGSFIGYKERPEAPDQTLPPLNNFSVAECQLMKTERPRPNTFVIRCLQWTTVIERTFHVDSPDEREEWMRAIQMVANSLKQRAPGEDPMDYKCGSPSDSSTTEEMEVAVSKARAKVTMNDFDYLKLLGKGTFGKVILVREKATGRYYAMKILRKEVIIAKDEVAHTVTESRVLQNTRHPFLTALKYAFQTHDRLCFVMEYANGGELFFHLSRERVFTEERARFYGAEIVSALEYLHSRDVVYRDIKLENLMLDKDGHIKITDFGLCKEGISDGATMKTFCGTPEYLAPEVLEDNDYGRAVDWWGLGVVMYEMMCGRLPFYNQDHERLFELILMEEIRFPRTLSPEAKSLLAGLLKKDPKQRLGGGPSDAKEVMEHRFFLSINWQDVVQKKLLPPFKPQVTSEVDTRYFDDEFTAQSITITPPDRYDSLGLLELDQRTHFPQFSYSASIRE
Chain of Serine/threonine-protein kinase AKT (Homo sapiens) (Q9Y243 whole entry, looked up): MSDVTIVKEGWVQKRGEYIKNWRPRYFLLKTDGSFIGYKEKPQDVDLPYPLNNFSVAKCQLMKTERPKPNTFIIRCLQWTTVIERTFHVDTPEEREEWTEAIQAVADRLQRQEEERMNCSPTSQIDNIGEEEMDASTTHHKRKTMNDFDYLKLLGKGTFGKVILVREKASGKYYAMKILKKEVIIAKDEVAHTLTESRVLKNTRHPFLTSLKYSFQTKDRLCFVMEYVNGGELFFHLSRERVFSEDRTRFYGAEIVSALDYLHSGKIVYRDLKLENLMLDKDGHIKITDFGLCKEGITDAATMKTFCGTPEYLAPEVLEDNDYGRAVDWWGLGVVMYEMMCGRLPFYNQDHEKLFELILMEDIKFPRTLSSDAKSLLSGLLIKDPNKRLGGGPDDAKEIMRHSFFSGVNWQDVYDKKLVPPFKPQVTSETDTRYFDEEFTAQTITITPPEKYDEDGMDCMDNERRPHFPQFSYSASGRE
The nature of series [3]: Toxicity in NOD-SCID mouse assessed as histological changes in kidney at 5 to 20 mg/kg, iv measured after 10 days by H and E staining based microscopic analysis. Format: organism-based. Particulars: in vivo, 240 h, dose 5-20 mg/kg, time 10 day.
Series [4] deals with BaF3. The experiment in a line: cells. The following applies: Mus musculus, BaF3, 72 h.
Description: Cytotoxicity against mouse BaF3 cells expressing CD74 fused TrkA assessed as inhibition of cell growth incubated for 3 days by CCK-8 assay
The test system of series [5] is BaF3. Nature of the series: Induction of apoptosis on mouse BaF3 cells expressing TEL fused TrkC G623R mutant incubated for 24 hrs by Annexin V-FITC/propidium iodide staining based flow cytometric analysis. Format: functional, cell-based. The following applies: dose 3-1000 nM. On the technique in general: A flow cytometer gives signals particle by particle.
The target of series [6] is Tyrosine-protein kinase Fes/Fps (Homo sapiens, UniProt P07332). The experiment in a line: Inhibition of human FES in presence of ATP by radiometric assay.
Chain of Tyrosine-protein kinase Fes/Fps (P07332 whole entry, the tested form may be a part): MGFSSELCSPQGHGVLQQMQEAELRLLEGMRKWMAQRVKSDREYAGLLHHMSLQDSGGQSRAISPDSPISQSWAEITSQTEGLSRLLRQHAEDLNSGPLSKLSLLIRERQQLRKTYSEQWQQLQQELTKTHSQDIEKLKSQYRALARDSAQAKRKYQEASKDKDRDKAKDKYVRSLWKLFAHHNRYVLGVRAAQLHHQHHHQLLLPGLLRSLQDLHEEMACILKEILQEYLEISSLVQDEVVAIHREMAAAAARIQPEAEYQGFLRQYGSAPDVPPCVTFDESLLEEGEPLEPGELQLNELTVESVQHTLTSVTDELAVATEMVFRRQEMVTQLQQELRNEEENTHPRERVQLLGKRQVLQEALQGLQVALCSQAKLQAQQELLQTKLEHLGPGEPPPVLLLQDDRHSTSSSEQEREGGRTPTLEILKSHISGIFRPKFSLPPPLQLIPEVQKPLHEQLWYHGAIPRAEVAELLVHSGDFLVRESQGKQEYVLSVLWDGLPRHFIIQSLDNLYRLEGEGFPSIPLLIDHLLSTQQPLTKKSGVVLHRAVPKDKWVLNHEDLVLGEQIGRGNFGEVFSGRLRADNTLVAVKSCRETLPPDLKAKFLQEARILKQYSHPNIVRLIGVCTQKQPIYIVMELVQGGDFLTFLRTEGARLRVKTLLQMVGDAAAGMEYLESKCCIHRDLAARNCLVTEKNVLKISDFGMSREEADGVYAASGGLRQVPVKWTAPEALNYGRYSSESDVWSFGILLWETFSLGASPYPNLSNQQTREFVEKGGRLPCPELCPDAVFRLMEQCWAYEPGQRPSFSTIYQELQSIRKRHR
Series [7] concerns BaF3. Nature of the series: In vivo inhibition of Trk signalling in NOD-SCID mouse allografted with mouse BaF3 cells expressing TEL fused TrkC G623R mutant assessed as reduction in p-Trk level at 5 to 20 mg/kg, iv qd measured after 10 days by IHC staining based analysis. Format: functional, organism-based. Particulars: dose 5-20 mg/kg, time 10.0 day.
A further series can be described thus: cells. The following applies: Homo sapiens, KM12-Luc, 72 h.
The nature of series [8]: Tmax in Sprague-Dawley rat at 5 mg/kg, iv measured up to 24 hrs by HPLC method. Format: ADME, organism-based. Particulars: in vivo.
Series [9] deals with BaF3. Nature of the series: Inhibition of PLCgamma1 phosphorylation in mouse BaF3 cells expressing TEL fused TrkC G623R mutant incubated for 6 hrs by Western blot analysis. Format: cell-based. Particulars: dose 3-300 nM. (A western blot detects proteins with antibodies after separation by electrophoresis.)
For series [10], the system named is BaF3. Nature of the series: Downregulation of TrkA protein expression in mouse BaF3 cells expressing CD74 fused TrkA incubated for 6 hrs by Western blot analysis. Format: functional, cell-based.
For series [11], the system named is BaF3. The experiment in a line: Induction of cell cycle arrest in mouse BaF3 cells expressing CD74 fused TrkA assessed as accumulation of cells in G0/G1 phase incubated for 24 hrs by PI/RNase staining based flow cytometry analysis. Format: functional.
The nature of series [12]: Oral bioavailability in Sprague-Dawley rat at 10 mg/kg measured up to 24 hrs by HPLC method. Format: ADME, organism-based. Particulars: in vivo.
The target in a further series is T2, Ephrin type-A receptor 8 (Homo sapiens, UniProt P29322).
T2 sequence (P29322 whole entry): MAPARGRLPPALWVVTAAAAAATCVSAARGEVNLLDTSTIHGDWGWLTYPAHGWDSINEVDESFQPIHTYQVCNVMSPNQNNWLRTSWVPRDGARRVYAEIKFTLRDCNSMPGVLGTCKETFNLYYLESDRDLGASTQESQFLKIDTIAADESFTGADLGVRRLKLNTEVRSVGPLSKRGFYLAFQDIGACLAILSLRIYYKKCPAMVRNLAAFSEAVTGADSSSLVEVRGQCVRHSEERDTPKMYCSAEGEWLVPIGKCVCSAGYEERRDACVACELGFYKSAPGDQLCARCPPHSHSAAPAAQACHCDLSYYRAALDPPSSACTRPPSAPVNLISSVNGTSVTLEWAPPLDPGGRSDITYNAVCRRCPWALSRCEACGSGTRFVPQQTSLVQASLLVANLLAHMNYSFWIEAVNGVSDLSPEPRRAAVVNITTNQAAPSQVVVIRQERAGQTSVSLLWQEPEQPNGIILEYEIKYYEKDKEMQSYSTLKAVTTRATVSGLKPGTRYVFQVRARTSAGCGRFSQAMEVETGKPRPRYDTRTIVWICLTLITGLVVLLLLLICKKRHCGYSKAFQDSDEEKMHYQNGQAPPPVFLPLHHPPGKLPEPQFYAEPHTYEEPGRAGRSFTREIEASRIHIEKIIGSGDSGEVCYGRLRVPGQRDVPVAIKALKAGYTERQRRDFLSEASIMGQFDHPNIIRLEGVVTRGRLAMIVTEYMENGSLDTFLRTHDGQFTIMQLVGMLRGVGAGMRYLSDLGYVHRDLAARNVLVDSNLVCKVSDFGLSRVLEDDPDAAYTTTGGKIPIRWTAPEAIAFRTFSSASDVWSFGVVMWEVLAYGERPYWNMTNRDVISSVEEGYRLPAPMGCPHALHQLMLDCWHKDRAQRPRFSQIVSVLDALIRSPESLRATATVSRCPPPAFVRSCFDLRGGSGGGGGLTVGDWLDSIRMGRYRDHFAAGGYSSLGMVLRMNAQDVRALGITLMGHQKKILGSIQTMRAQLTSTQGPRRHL
Nature of the series: Inhibition of human EphA8 in presence of ATP by radiometric assay.

The test system of series [13] is BaF3. Nature of the series: Downregulation of TrkA protein expression in mouse BaF3 cells expressing TEL fused TrkA incubated for 6 hrs by Western blot analysis. Format: functional, cell-based.
Series [14] deals with BaF3. Nature of the series: cells. The following applies: Mus musculus, BaF3, 72 h. The source holds these as a separate data set.
Description: Cytotoxicity against mouse BaF3 cells expressing TEL fused TrkC assessed as inhibition of cell growth incubated for 3 days by CCK-8 assay
A short description of series [15]: Cmax in Sprague-Dawley rat at 10 mg/kg, po measured up to 24 hrs by HPLC method. Format: ADME, organism-based. Details: route oral, dose 10 mg/kg, time <=24. Particulars: in vivo.

Here are results for 1 molecule from ChEMBL document CHEMBL5042533, “Structural Optimization and Structure-Activity Relationship Studies of 6,6-Dimethyl-4-(phenylamino)-6H-pyrimido[5,4-b][1,4]oxazin-7(8H)-one Derivatives as A New Class of Potent Inhibitors of Pan-Trk and Their Drug-Resistant Mutants” (J Med Chem, 2022).

SMILES strings stand for the structures. pIC50: −log10 of the molar value. Activity calls are given as the source filed them. The calls are words filed in the database; no cut-off is given here.

As usually defined, the pIC50 is −log10 of the IC50, conventionally taken in molar units. For orientation: Tmax means the time at which the peak concentration occurs. By bioavailability is commonly meant dose-corrected exposure relative to a reference, in per cent. High values mean good availability, low ones poor availability. A word on the Cmax: it is the peak of the concentration-time curve.

In the case of `Cc1cc(NC(=O)Nc2cc(C(C)(C)C)nn2-c2ccc(Cl)cc2)ccc1Nc1ncnc2c1OC(C)(C)C(=O)N2`, the negative logarithm of the IC50 (pIC50) in series [1] is 6.86; in the series with BaF3 [4] it was 9.30; in [6] it was 6.57; in “cells”, 8.22; on Ephrin type-A receptor 8, 7.00; in the series on BaF3 [14], 7.89. For the same molecule, the inhibition entry (in [2]; with BaF3 [7]; with BaF3 [9]) was “Active” each time. Further, the figures for the Activity result (in series [3]; with BaF3 [5]) were “Non-Toxic” and “Dose-Dependent Effect”, respectively. In addition, the time of peak concentration (Tmax) in [8] came to 4.8 min. Also, the result in the series on BaF3 [10] was inactive. Moreover, the result in the series on BaF3 [11] and with BaF3 [13] was Active. The bioavailability in [12] is 19.8%. In series [15], this molecule gave a Cmax of 1800 ng/mL.
